Laboratory results reported in patent US12643906B2, “Fused aza-heterocyclic amide compound and use thereof” (CSPC ZHONGQI PHARMACEUTICAL TECHNOLOGY (SHIJIAZHUANG) CO., …, priority 2020, dated 2026).
pIC50: −log10 of the molar value. Read-outs that look alike come from different tables or passages of the source.

Tests used:
[1] = target: T1, TRKA(G595R) (Homo sapiens, UniProt P04629, G595R); experiment: HTRF kinase inhibition assay, TRKA(G595R); type: biochemical
T1 construct: purchased signalchem
Procedure: (§1) The compound to be tested with a certain concentration gradient and an enzyme solution were successively added into a plate (kinase buffer (1× kinase buffer (Cisbio, Cat #62EZBFDD), pH 7.5; 5 mM MgCl2, 1 mM DTT) was added into negative control wells), and the compound plate was centrifuged at 1000 rpm for 30 seconds. The plate was sealed and incubated in a Constant Temperature Incubator at 25° C. for 30 min. A substrate solution containing TK-Sub-biotin (Cisbio, Cat #61TKOBL) and ATP (Sigma, Cat #R0441) was prepared, the substrate solution was added into a 384-well plate, and the plate was centrifuged at 1000 rpm for 30 seconds. The plate was sealed and incubated in a Constant Temperature Incubator at 25° C. for 60 min.
(§2) TK antibody and XL665 were diluted, mixed and added into the assay plate, and the plate was centrifuged at 1000 rpm for 30 seconds. The plate was sealed and incubated in a Constant Temperature incubator Incubator at 25° C. for 60 min. The assay plate was placed on an Envision reader for reading. (HTRF 665/615 ratio: signal value at 665 nm/signal value at 615 nm) Inhibition=(rationegative control well−ratiocompound well)/(rationegative control well−ratioenzyme-free control well)×100% 1.3 Data Analysis and Curve Fitting
(§3) Data were fitted in XLFit excel add-in version 5.4.0.8 to obtain IC50 values.

[2] = target: T2, Ba/F3 ETV6-NTRK3-G623R (Homo sapiens, UniProt Q16288, G623R, cells depend on it); experiment: In vitro cell proliferation inhibition (MTT); type: cell-based, murine; settings: 72 h, read-out: IC50 Ba/F3 ETV6-NTRK3-G623R
T2 construct: fused on or other part: P41212 (Transcription factor ETV6)
Procedure: (§4) Cells in the logarithmic growth phase were harvested and counted using a […]. The cell suspension with a certain density was pipetted uniformly and seeded into a 96-well plate with each well of 100 μL, and shaken to make the cells uniformly disperse into the wells. 100 μL of compound solution with certain concentration gradient was added into each well, and 3 duplicate wells were set for each concentration. The plate was cultured in a CO2 incubator at 37° C. for 72 h. 20 μL of MTT working solution (5 mg/mL) was added into each well, and the plate was placed at 37° C. for 4 h, and centrifuged at 1000 rpm for 5 min by a plate centrifuge. After 180 μL of culture medium was discarded, the plate was added with 150 μL of DMSO, and mixed well with a microplate shaker, the plate bottom was wiped, and optical density (OD) at 550 nm was detected with a microplate reader.

[3] = target: T3, Ba/F3 LMNA-NTRK1 (Homo sapiens, UniProt P04629); experiment: In vitro cell proliferation inhibition (MTT); type: cell-based, murine; settings: 72 h, read-out: IC50 Ba/F3 LMNA-NTRK1
T3 construct: fused on or other part: P02545 (Prelamin-A/C)
Procedure: as §4

[4] = target: T4, Ba/F3 LMNA-NTRK1-G667C (Homo sapiens, UniProt P04629, G667C, cells depend on it); experiment: In vitro cell proliferation inhibition (MTT); type: cell-based, murine; settings: 72 h, read-out: IC50 Ba/F3 LMNA-NTRK1-G667C
T4 construct: fused on or other part: P02545 (Prelamin-A/C)
Procedure: as §4

[5] = target: T5, Ba/F3 LMNA-NTRK1-G595R (Homo sapiens, UniProt P04629, G595R, cells depend on it); experiment: In vitro cell proliferation inhibition (MTT); type: cell-based, murine; settings: 72 h, read-out: IC50 Ba/F3 LMNA-NTRK1-G595R
T5 construct: fused on or other part: P02545 (Prelamin-A/C)
Procedure: as §4

[6] = target: T6, Ba/F3 ETV6-NTRK2 (Homo sapiens, UniProt Q16620); experiment: In vitro cell proliferation inhibition (MTT); type: cell-based, murine; settings: 72 h, read-out: IC50 Ba/F3 ETV6-NTRK2
T6 construct: fused on or other part: P41212 (Transcription factor ETV6)
Procedure: as §4

[7] = target: T7, TRKC (Homo sapiens, UniProt Q16288); experiment: HTRF kinase inhibition assay, TRKC; type: biochemical
T7 construct: purchased Bioduro
Procedure: as §1, §2, §3

[8] = target: T8, ROS1 (Homo sapiens, UniProt P08922); experiment: Kinase inhibition assay with fluorescein labeled peptide, ROS1; type: biochemical
T8 construct: purchased Carna 08-163
Procedure: (§5) Compounds were diluted to a certain concentration in DMSO with 4-fold gradients. The compound with a certain concentration, an enzyme solution and DMSO were added into a 384-well plate, and the plate was incubated at room temperature for 10 min. […] The plate was subjected to reading.

[9] = target: T9, ALK (Homo sapiens, UniProt Q9UM73); experiment: Kinase inhibition assay with fluorescein labeled peptide, ALK; type: biochemical
T9 construct: purchased Carna 08-105
Procedure: as §5

[10] = target: T10, TRKA (Homo sapiens, UniProt P04629); experiment: HTRF kinase inhibition assay, TRKA; type: biochemical
T10 construct: purchased Bioduro
Procedure: as §1, §2, §3

[11] = test system: Ba/F3 LMNA-NTRK1-G667C model; settings: 100 mg/kg, gavage
Procedure: (§6) The cells in the logarithmic growth phase were collected and re-suspending in serum-free culture medium to make the cell concentration at […] cells/mL. The cell suspension was added with equal volume of Matrigel to make the final cell concentration at 3×10^7-5×10^7 cells/mL. The animal model was established by subcutaneously inoculating 0.1 mL of tumor cell suspension in the axilla of the forelimb of NuNu mice (female, 4-6 weeks, Beijing Vital River Laboratory Animal Technology Co., Ltd.) in an amount of 3×10^6-5×10^6 cells/mouse.
(§7) The maximum and the minimum tumor diameters of the xenografts in nude mice were measured using a vernier caliper, and the tumor volume (TV) was calculated according to the formula: V=½×a×b^2, where a and b represent the maximum and minimum diameters of the tumor mass, respectively. Nude mice with appropriate tumor volume were selected and the mice were evenly divided into 7 groups of 6 mice (100-200 mm^3) by tumor volume using a random number method.
(§8) Tumor diameters were measured twice weekly and tumor volume was calculated. […] (where Ti represents the mean tumor volume of a certain administration group on a certain day; TO represents the mean tumor volume of the administration group at the start of administration, Vi represents the mean tumor volume of the vehicle control group on a certain day (same day as Ti) and V0 represents the mean tumor volume of the vehicle control group at the start of administration); • Tumor inhibition rate: at the end of the test, the animals were executed by removing the cervical vertebrae.

[12] = test system: Ba/F3 LMNA-NTRK1-G595R model; settings: gavage
Procedure: as §6, §7, §8

How did the pIC50 [1] turn out when O=C(Nc1ccc(N2CCN(C(=O)CO)CC2)cc1)c1cnn2ccc(N3C[C@@H](F)C[C@@H]3c3cc(F)ccc3F)nc12 [Compound 4, 5-((2R,4S)-2-(2,5-difluorophenyl)-4-fluoropyrrolidin-1-yl)-N-(4-(4-(2-hydroxyacetyl)piperazin-1-yl)phenyl)pyrazolo[1,5-a]pyrimidine-3-carboxamide] was run?
Its pIC50 is greater than 9.77.

And the GI50 [2]?
The GI50 was 674 pM.

What about the GI50 [3] of the same compound?
Its GI50 is 729 pM.

And the GI50 [4]?
Its GI50 is 2210 pM.

And the GI50 [5]?
The GI50 was 166 pM.

And the GI50 [6]?
The GI50 was 1770 pM.

And the pIC50 [7]?
Its pIC50 is 9.35.

What about the pIC50 [8] of the same compound?
The pIC50 was 9.72.

And the pIC50 [9]?
The pIC50 was 7.66.

And the pIC50 [10]?
The pIC50 was 9.63.

What about the “Number of animals (Survival/total)” value [11] of the same compound?
Its value is “(6/6)”.

And the “Rate of weight gain (%)” value [11]?
Its value is 8.16%.

And the “TGI (%)” value [11]?
Its value is 84.0%.

And the “Tumor volume (mm^3)” value [11]?
The value was 197.5 ± 85.4 mm^3.

And the “Tumor weight” value [11]?
The value was 0.21 ± 0.08 g.

What about the “Tumor weight inhibition rate (%)” value [11] of the same compound?
Its value is 61.17%.

What about the “Number of animals (Survival/total)” value ([12]; 50 mg/kg) of the same compound?
The value was “(6/6)”.

What about the “Rate of weight gain (%)” value ([12]; 50 mg/kg) of the same compound?
Its value is 10.66%.

And the “TGI (%)” value ([12]; 50 mg/kg)?
Its value is 136.9%.

What about the “Tumor volume (mm^3)” value ([12]; 50 mg/kg) of the same compound?
Its value is 15.7 ± 12.6 mm^3.

What about the “Tumor weight” value ([12]; 50 mg/kg) of the same compound?
Its value is 0.02 ± 0.01 g.

What about the “Tumor weight inhibition rate (%)” value ([12]; 50 mg/kg) of the same compound?
Its value is 96.16%.

And the “Number of animals (Survival/total)” value ([12]; 100 mg/kg)?
Its value is “(6/6)”.

What about the “Rate of weight gain (%)” value ([12]; 100 mg/kg) of the same compound?
Its value is 8.32%.

What about the “TGI (%)” value ([12]; 100 mg/kg) of the same compound?
Its value is 138.0%.

And the “Tumor volume (mm^3)” value ([12]; 100 mg/kg)?
The value was 11.3 ± 9.7 mm^3.

What about the “Tumor weight” value ([12]; 100 mg/kg) of the same compound?
Its value is 0.02 ± 0.01 g.

What about the “Tumor weight inhibition rate (%)” value ([12]; 100 mg/kg) of the same compound?
The value was 96.83%.
